# Results published in patent publication US4082849A, “Halogenated N-(3,5-dihalophenyl)cyclopropanedicarboximides” (priority 1975, dated 1978).
# Read-outs that look alike come from different tables or passages of the source.
# Columns and labels:
# Sclerotinia sclerotiorum [1] = assay: Test for Sclerotinia sclerotiorum controlling effect on cucumbers; type: in vivo; settings: 100 ppm
# Procedure: After one day, Sclerotinia sclerotiorum was inoculated on the surface of the leaf, and the disease severity was observed three days thereafter. The degree of the severity was determined in the following manner. The rate of diseased area on the leaf was measured and classified in one of the six infectious indexes (0, 1, 2, 3, 4, 5) according to the undermentioned criteria. The number of leaves corresponding to each infectious index ([NT]5) was determined, and degree of severity was calculated according to the undermentioned equation: […]
# Glomerella cingulata [2] = system: Glomerella cingulata
# Procedure: Test for Glomerella Cingulata controlling effect on grape
# An aqueous dilution of the test compound in the form of a wettable powder preparation was applied to berries of grape at a rate of 20 ml per branch. After one day, Glomerella cingulata was inoculated on the surface of the berries immediately after injuring the inoculation site. Three days after inoculation, disease assessment was made. Percentage of control was calculated from the diameter of diseased area according to the following equation: [formula]
# Botrytis cinerea [3] = assay: Test for Botrytis cinerea controlling effect on cucumbers; type: in vivo
# Procedure: After one day, agar discs (diameter: 5 mm) with Botrytis cinerea were put on the leaves for inoculation. Three days after, the disease severity was observed, and the disease-controlling effect was estimated. Percentage of control was determined by the following procedure. The rate of diseased area on the tested leaf was measured and classified in one of the six infectious indexes (0, 1, 2, 3, 4, 5) according to the undermentioned criteria. The number of leaves corresponding to each infectious index ([NT]5) was determined, and percentage of control was calculated according to the undermentioned equation: […]
# Rhizoctonia solani [4] = system: Rhizoctonia solani
# Procedure: Test for Rhizoctonia solani controlling effect on cucumber
# Farm soil was charged into pots of 9 cm in diameter and a soil (10 ml) infected with Rhizoctonia solani was dispersed over the surface of said soil. Each of the test compounds in the form of emulsifiable concentrates was diluted with water to a given concentration, and the dilution was applied into each pot in a proportion of 20 ml per pot. After 2 hours, 10 seeds of cucumber were sowed therein. 5 Days thereafter, the infectious state of the grown seedlings was observed, and the percentage of stand was calculated according to the following equation: [formula]
# Verticillium albo-atrum = assay: Anti-fungal spectrum, agar dilution method; type: cell-based; settings: PSA plate, 28° C, read-out: growth inhibiting effect
# Sclerotinia sclerotiorum [5] = assay: Anti-fungal spectrum, agar dilution method; type: cell-based; settings: PSA plate, 28° C, read-out: growth inhibiting effect
# Pellicularia sasakii = assay: Anti-fungal spectrum, agar dilution method; type: cell-based; settings: read-out: growth inhibiting effect
# Rhizoctonia solani [6] = assay: Anti-fungal spectrum, agar dilution method; type: cell-based; settings: PSA plate, 28° C, read-out: growth inhibiting effect
# [7] = system: Aspergillus niger ATCC 6275; assay: Anti-fungal spectrum, agar dilution method; type: cell-based; settings: Aspergillus niger ATCC 6275, 50 ppm, PSA plate, 28° C
# [8] = system: Fusarium oxysporum f. lycopersici; assay: Anti-fungal spectrum, agar dilution method; type: cell-based; settings: PSA plate, 28° C, read-out: growth inhibiting effect
# Giberella fujikuroi = assay: Anti-fungal spectrum, agar dilution method; type: cell-based; settings: read-out: growth inhibiting effect
# Phytophthora infestans = assay: microbe, parasite or virus in culture; type: cell-based; settings: read-out: growth inhibiting effect
# [9] = system: Colletotrichum lagenarium; assay: Anti-fungal spectrum, agar dilution method; type: cell-based; settings: Colletotrichum orbiculare, PSA plate, 28° C, read-out: growth inhibiting effect
# Botrytis cinerea [10] = assay: Anti-fungal spectrum, agar dilution method; type: cell-based; settings: PSA plate, 28° C, read-out: growth inhibiting effect
# Rhizopus nigricans = assay: Anti-fungal spectrum, agar dilution method; type: cell-based; settings: Rhizopus stolonifer, PSA plate, 28° C, read-out: growth inhibiting effect
# Pyricularia oryzae = assay: microbe, parasite or virus in culture; type: cell-based; settings: read-out: growth inhibiting effect
# Glomerella cingulata [11] = assay: Anti-fungal spectrum, agar dilution method; type: cell-based; settings: Colletotrichum gloeosporioides, PSA plate, 28° C, read-out: growth inhibiting effect
# Corticium rolfsii = assay: Anti-fungal spectrum, agar dilution method; type: cell-based; settings: Agroathelia rolfsii, PSA plate, 28° C, read-out: growth inhibiting effect
# [12] = system: Chaetomium globosum ATCC 6205; assay: Anti-fungal spectrum, agar dilution method; type: cell-based; settings: Chaetomium globosum ATCC 6205, 50 ppm, PSA plate, 28° C
# [13] = Pellicularia sasakii, 50 ppm, PSA plate, 28° C
# [14] = Giberella fujikuroi, 50 ppm, PSA plate, 28° C
Compound,Degree of severity (Sclerotinia sclerotiorum [1]),Percentage of control (Glomerella cingulata [2]; 250 ppm of ingredient),Percentage of control (Botrytis cinerea [3]; 50 ppm),Percentage of control (Botrytis cinerea [3]; 200 ppm),Percentage of stand (Rhizoctonia solani [4]; 250 ppm),Percentage of stand (Rhizoctonia solani [4]; 500 ppm),inhibition at 50 ppm (Verticillium albo-atrum),inhibition at 50 ppm (Sclerotinia sclerotiorum [5]),inhibition at 50 ppm (Rhizoctonia solani [6]),growth inhibiting effect [7],inhibition at 50 ppm [8],inhibition at 50 ppm (Phytophthora infestans),inhibition at 50 ppm [9],inhibition at 50 ppm (Botrytis cinerea [10]),inhibition at 50 ppm (Rhizopus nigricans),inhibition at 50 ppm (Pyricularia oryzae),inhibition at 50 ppm (Glomerella cingulata [11]),inhibition at 50 ppm (Corticium rolfsii),growth inhibiting effect [12],other results
O=C1C2CC2(Cl)C(=O)N1c1cc(Cl)cc(Cl)c1 (stereo not drawn) [Compound 2],100%,100%,100%,100%,100%,100%,–,–,–,–,–,–,–,–,–,–,–,–,–,–
Mancozeb [reference compound],–,–,–,–,–,–,–,–,–,–,–,–,–,–,–,–,–,–,–,Percentage of control (Glomerella cingulata [2]; 140 ppm of ingredient): 65.0%
"CC12CC1(Cl)C(=O)N(c1cc(Cl)cc(Cl)c1)C2=O (stereo not drawn) [Compound 1, N-(3,5-dichlorophenyl)-α-chloro-β-methylcyclopropanedicarboximide]",100%,100%,–,–,100%,100%,100%,100%,100%,A (no growth),100%,100%,100%,100%,100%,90%,100%,100%,A (no growth),inhibition at 50 ppm (Pellicularia sasakii; [13]): 100%; inhibition at 50 ppm (Giberella fujikuroi; [14]): 100%
CC12CC1(C)C(=O)N(c1cc(Cl)cc(Cl)c1)C2=O (stereo not drawn) [reference compound],–,6.5%,–,–,0%,21.3%,5%,100%,90%,E (5 % inhibition),70%,0%,0%,100%,0%,0%,30%,0%,E (5 % inhibition),inhibition at 50 ppm (Pellicularia sasakii): 100%; inhibition at 50 ppm (Giberella fujikuroi): 0%
CC12CC1(Br)C(=O)N(c1cc(Cl)cc(Cl)c1)C2=O (stereo not drawn) [Compound 5],100%,–,95%,100%,–,–,–,–,–,–,–,–,–,–,–,–,–,–,–,–
"CC12CC1(Cl)C(=O)N(c1cc(Br)cc(Br)c1)C2=O (stereo not drawn) [Compound 3, N-(3,5-dibromophenyl)-α-chloro-β-methylcyclopropanedicarboximide]",94%,78.5%,92%,100%,–,–,100%,100%,100%,A (no growth),100%,100%,90%,100%,90%,90%,100%,100%,A (no growth),inhibition at 50 ppm (Pellicularia sasakii; [13]): 100%; inhibition at 50 ppm (Giberella fujikuroi; [14]): 100%
"O=[N+]([O-])c1c(Cl)c(Cl)c(Cl)c(Cl)c1Cl [PCNB, reference compound]",–,–,–,–,93.4%,–,–,–,–,–,–,–,–,–,–,–,–,–,–,–
"CCCCNC(=O)n1c(NC(=O)OC)nc2ccccc21 [Methyl-1-(butylcarbamoyl)-2-benzimidazole carbamate, reference compound]",35%,–,90%,100%,–,–,–,–,–,–,–,–,–,–,–,–,–,–,–,–
CC1C2C(=O)N(c3cc(Cl)cc(Cl)c3)C(=O)C12Cl (stereo not drawn) [Compound 4],100%,–,100%,100%,96.7%,100%,–,–,–,–,–,–,–,–,–,–,–,–,–,–
